Entries after “also recorded” stand apart in the source; their conditions may differ.
Legend:
LPA2 mutant K22A = target: T1, LPA2 mutant K22A (Homo sapiens, UniProt Q9HBW0, K19A); assay: Ca2+ mobilization in McA-RH7777 cells transfected with LPA2 point mutant K22A; type: cell-based; conditions: 54 at 10 μM, 10 μM LPA
T1 construct: host or cells: McA-RH7777 (CRL-1601, ATCC), transient, pcDNA3.1

LPA2 K278A mutant = target: T2, LPA2 K278A mutant (Homo sapiens, UniProt Q9HBW0, K275A); assay: Ca2+ mobilization in McA-RH7777 cells transfected with LPA2 point mutant K278A; type: cell-based
T2 construct: host or cells: McA-RH7777 (CRL-1601, ATCC), transient, pcDNA3.1

LPA5 = LPA5 (Homo sapiens, UniProt Q9H1C0); conditions: in abstract
Protocol: (§1) The assay was analyzed using a benchtop Compensated Interferometric Reader (CIR) that measured the light refractive index (ΔRI) change from binding-induced conformational and/or hydration changes produced by real time binding events in a sample (receptor containing nanovesicles plus compound) and compared to a nonbinding reference (RI matched buffer plus compound).[30] Finally, the interferometric signal from vector nanovesicles binding (nonspecific) to compound was subtracted from the LPA2,4–6 containing nanovesicles binding (total) to compound, to determine the specific binding interactions of the compounds to LPA2,4–6. The concentration-dependent change in RI (ΔRI) signal from the compounds to LPA2,4–6 or vector was fitted using the single site total vs nonspecific binding isotherm using GraphPad Prism. Specific KD values were determined by fitting the total minus nonspecific signal to a single site binding isotherm.
(§2) The detailed free solution assay method was described previously.[25],[26] All the compounds were dissolved in 100% DMSO, aliquoted, and frozen at −80 °C for 1 week. The compound dilution series was freshly prepared in 0.5% DMSO/PBS (pH 7.4) to keep the maximum compound in solution. […]

LPA4 = LPA4 (Homo sapiens, UniProt Q99677); conditions: in abstract
Protocol: as §1, §2

LPA2 [1] = target: T3, LPA2 (Homo sapiens, UniProt Q9HBW0); assay: Ca2+ mobilization assay, antagonist activity at LPA2; type: cell-based; design: Emax: dose or concentration left out as unconfirmed
T3 construct: expressed in transfected cells
Protocol: Cells stably expressing the corresponding LPA1–3 receptor were grown as described previously.[18] Changes in intracellular calcium levels were measured by using the fluorescent calcium sensitive dye Fluo-4 NW (Invitrogen). RH7777 cells or B103 cells were plated on poly-D-lysine or collagen coated, respectively, black-wall clear-bottom 96-well plates (Corning) at a density of 50 000 cells/well and cultured overnight. The culture medium was then replaced with 100 μL of Fluo-4 NW dye loading solution containing 2.5 μM of probenecid and incubated for 30 min at 37 °C followed by an additional 30 min at rt. […] Fluorescence changes were registered in a FluoStar Optima instrument (BMG Labtech) at 525 nm using an excitation wavelength of 494 nm. […] The data presented are from two to four independent experiments carried out in triplicate or quadruplicate. Dose–response curves were generated and IC50 values calculated by nonlinear regression analysis using Prism software version 5 (GraphPad Software Inc., San Diego, CA, USA).
Figure S2. Dose response curves for compounds 13, 44, 53, 54, and 55. B103 cells stably expressing LPA2 receptor were incubated with different concentrations of the compound under study and […]
Curves were generated with PRISM software version 5 (GraphPad Software Inc, San Diego, CA, USA) using nonlinear regression analysis. Each data point corresponds to the mean±SEM of two to four independent experiments carried out in triplicate or quadruplicate.

[2] = test system: spinal cord injury in LPA2 null mice; assay: Spinal cord contusion injury model in LPA2 null mice (Basso Mouse Scale); type: in vivo; conditions: 25 mg/kg i.p. daily for 10 days
Protocol: Effect of i.p. injection of 54 (25 mg/kg) or vehicle on locomotor recovery in (A) C57bl/6 mice and (B) LPA2 deficient mice quantified using the 0 (absence of movement) to 9 (completely normal locomotor behavior) Basso Mouse Scale (BMS). Data are expressed as mean ± s.e.m. and correspond to seven animals per group in A and five animals per group in B. * p < 0.05 compared with vehicle-treated group (two-way repeated measures ANOVA with Bonferroni’s post hoc test for multiple comparisons).
All Surgical Procedures Were Approved by the Universitat Autònoma De Barcelona Animal Care Committee (CEEAH 4273) and followed the guidelines of the European Commission on Animal Care (EU Directive 2010/63/EU). Adult female C57Bl/6J mice (10–12 weeks old) and LPA2 null mice were anesthetized by intramuscular injection with a mixture of ketamine and xylazine (90:10 mg/kg). A laminectomy was performed at the 11th thoracic vertebrae and the exposed spinal cord was contused using the Infinite Horizon Impactor device (Precision Scientific Instrumentation) using a force of 60 kdynes. Only mice showing a spinal cord tissue displacement ranging between 450 and 550 μm were selected.

LPA2 [3] = target: T3, LPA2; assay: Free solution assay-compensated interferometric reader (FSA-CIR) binding, LPA2; conditions: receptor-containing nanovesicles, read-out: binding equilibrium constant (KD) at LPA2
Protocol: as §1, §2

LPA2 mutant Q108A = target: T4, LPA2 mutant Q108A (Homo sapiens, UniProt Q9HBW0, Q105A); assay: Ca2+ mobilization in McA-RH7777 cells transfected with LPA2 point mutant Q108A; type: cell-based; conditions: 54 at 10 μM, 10 μM LPA
T4 construct: host or cells: McA-RH7777 (CRL-1601, ATCC), transient, pcDNA3.1

[4] = Metabolic stability in mouse liver microsomes; type: in vitro ADME; conditions: male, CD-1, mouse, liver microsomes (pooled), 1 mg/mL protein, NADPH, 37 °C, read-out: stability (t1/2, min) MLMs
Protocol: Reactions were initiated by the addition of a suspension of mouse liver microsomes (MLMs) (male CD-1 mice pooled, Sigma-Aldrich) or human liver microsomes (HLMs) (male human pooled, Sigma-Aldrich), respectively, at a final protein concentration of 1 mg/mL. […] Aliquots of 100 μL were quenched at time zero and at seven points ranging to 2 h (MLM) or 4 h (HLM) by pouring into 100 μL of ice-cold acetonitrile. […] The relative disappearance of the compound under study over the course of the incubation was monitored by HPLC-MS using SIM mode. Concentrations were quantified by measuring the area under the peak ([M + H]^+) normalized with an internal standard and converted to the percentage of compound remaining, using the time zero peak area value as 100%. The natural logarithm of the remaining percentage versus time data for each compound was fit to a linear regression, and the slope was used to calculate the degradation half-life (t1/2).

T3 sequence (Q9HBW0 whole entry, species assumed): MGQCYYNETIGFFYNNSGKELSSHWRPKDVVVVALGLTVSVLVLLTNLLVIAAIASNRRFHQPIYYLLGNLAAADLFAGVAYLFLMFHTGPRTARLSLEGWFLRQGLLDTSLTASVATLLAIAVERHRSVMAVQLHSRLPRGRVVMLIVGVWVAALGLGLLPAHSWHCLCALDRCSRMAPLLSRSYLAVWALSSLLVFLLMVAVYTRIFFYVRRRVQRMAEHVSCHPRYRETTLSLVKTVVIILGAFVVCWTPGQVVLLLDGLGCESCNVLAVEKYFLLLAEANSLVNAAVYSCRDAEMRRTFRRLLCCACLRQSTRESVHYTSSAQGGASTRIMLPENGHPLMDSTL
T2 sequence (Q9HBW0 whole entry K275A): as the sequence (Q9HBW0 whole entry, species assumed) above, with K275A counted along it
Chain of LPA4 (Q99677 whole entry, species assumed): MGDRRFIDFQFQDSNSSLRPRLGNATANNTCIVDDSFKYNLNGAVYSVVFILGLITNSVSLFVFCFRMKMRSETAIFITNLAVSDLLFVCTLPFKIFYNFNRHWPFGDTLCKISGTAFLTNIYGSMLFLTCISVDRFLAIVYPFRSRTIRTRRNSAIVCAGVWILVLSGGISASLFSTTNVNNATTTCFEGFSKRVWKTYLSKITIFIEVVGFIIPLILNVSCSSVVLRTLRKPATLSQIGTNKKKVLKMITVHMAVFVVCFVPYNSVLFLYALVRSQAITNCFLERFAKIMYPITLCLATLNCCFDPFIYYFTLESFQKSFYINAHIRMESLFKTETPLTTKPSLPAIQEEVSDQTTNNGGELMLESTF
T1 sequence (Q9HBW0 whole entry K19A): as the sequence (Q9HBW0 whole entry, species assumed) above, with K19A counted along it
T4 sequence (Q9HBW0 whole entry Q105A): as the sequence (Q9HBW0 whole entry, species assumed) above, with Q105A counted along it
Chain of LPA5 (Q9H1C0 whole entry, species assumed): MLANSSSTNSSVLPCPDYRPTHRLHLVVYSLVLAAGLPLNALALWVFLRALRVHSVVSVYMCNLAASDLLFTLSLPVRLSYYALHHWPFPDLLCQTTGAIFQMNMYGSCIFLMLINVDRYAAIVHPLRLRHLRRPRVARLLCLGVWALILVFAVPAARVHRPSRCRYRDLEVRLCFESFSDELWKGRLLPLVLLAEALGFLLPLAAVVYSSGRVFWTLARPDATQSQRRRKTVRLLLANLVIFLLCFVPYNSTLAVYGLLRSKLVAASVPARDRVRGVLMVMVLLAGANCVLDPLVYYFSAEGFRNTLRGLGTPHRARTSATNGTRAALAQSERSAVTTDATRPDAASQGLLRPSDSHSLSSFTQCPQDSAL

Structure (SMILES): Cc1[nH]nc(-c2ccc(OCc3nnn[nH]3)cc2O)c1Oc1ccc(Cl)cc1Cl [Compound 54]
- agonist/antagonist activity at LPA2 K22A mutant (LPA2 mutant K22A): no significant agonist nor antagonist activity
- functional activity at LPA2 K278A mutant (LPA2 K278A mutant; 10 μM): behaved as an agonist
- activation of LPA2 K278A mutant (LPA2 K278A mutant; at 10 μM, stimulation by 10 μM LPA normalized to 100%): 75 ± 5%
- activity at LPA5 receptor (LPA5): inactive
- activity at LPA4 receptor (LPA4): inactive
- Emax (LPA2 [1]): 90 ± 2%
- IC50 (LPA2 [1]; antagonism of 10 μM LPA, mean ± s.e.m.): 1.9 µM
- melting point: 180 to 182 °C
- locomotor recovery after SCI (BMS) [2]: did not induce any significant effect; also recorded: inactive
- Kd (LPA2 [3]): 1.3 nM
- agonist/antagonist activity at LPA2 Q108A mutant (LPA2 mutant Q108A): no significant agonist nor antagonist activity
- half-life at 1 μM [4]: 50 ± 6 min

— paper PMC9421655, “Novel Antagonist of the Type 2 Lysophosphatidic Acid Receptor (LPA2), UCM-14216, Ameliorates Spinal Cord Injury in Mice” (Journal of Medicinal Chemistry, 2022)
